Experimental data: the kinase profiling compilation of Christmann-Franck et al. (2016)

Columns and labels:
Test in all cases: KINOMEscan competition binding
Conditions in all cases: compound 10.0 µM
BMPR1A (human) = BMPR1A (human) (UniProt P36894)
IKBKE (human) = IKBKE (human) (UniProt Q14164)
PRKG1 (human) = PRKG1 (human) (UniProt Q13976)
SLK (human) = SLK (human) (UniProt Q9H2G2)
CLK4 (human) = CLK4 (human) (UniProt Q9HAZ1)
CDK8 (human) = CDK8 (human) (UniProt P49336)
ACVR2B (human) = ACVR2B (human) (UniProt Q13705)
ERBB2 (human) = ERBB2 (human) (UniProt P04626)
TNK1 (human) = TNK1 (human) (UniProt Q13470)
BTK (human) = BTK (human) (UniProt Q06187)
FGFR2 (human) = FGFR2 (human) (UniProt P21802)
[1] = biological target: JAK1 JH2 pseudokinase (human) (UniProt P23458)
TESK1 (human) = TESK1 (human) (UniProt Q15569)
[2] = test system: PIK3CA (human), P42336 [M1043I]
MAP3K7 (human) = MAP3K7 (human) (UniProt O43318)
ABL2 (human) = ABL2 (human) (UniProt P42684)
FES (human) = FES (human) (UniProt P07332)
PHKG2 (human) = PHKG2 (human) (UniProt P15735)
EPHB6 (human) = EPHB6 (human) (UniProt O15197)
DYRK2 (human) = DYRK2 (human) (UniProt Q92630)
[3] = test system: EGFR (human), P00533 [L858R]
HUNK (human) = HUNK (human) (UniProt P57058)
MAP2K5 (human) = MAP2K5 (human) (UniProt Q13163)
IRAK3 (human) = IRAK3 (human) (UniProt Q9Y616)
ANKK1 (human) = ANKK1 (human) (UniProt Q8NFD2)
DCLK3 (human) = DCLK3 (human) (UniProt Q9C098)
TNIK (human) = TNIK (human) (UniProt Q9UKE5)
RIPK1 (human) = RIPK1 (human) (UniProt Q13546)
MAP3K11 (human) = MAP3K11 (human) (UniProt Q16584)
CDK15 (human) = CDK15 (human) (UniProt Q96Q40)
MYLK4 (human) = MYLK4 (human) (UniProt Q86YV6)
CaMK1 (human) = CaMK1 (human) (UniProt Q14012)
SIK3 (human) = SIK3 (human) (UniProt Q9Y2K2)
TSSK1B (human) = TSSK1B (human) (UniProt Q9BXA7)
STK33 (human) = STK33 (human) (UniProt Q9BYT3)
RPS6KA4 KD1 (human) = RPS6KA4 KD1 (human) (UniProt O75676)
GSK3B (human) = GSK3B (human) (UniProt P49841)
INSRR (human) = INSRR (human) (UniProt P14616)
TAOK1 (human) = TAOK1 (human) (UniProt Q7L7X3)
NTRK2 (human) = NTRK2 (human) (UniProt Q16620)

Sequence of BTK (human) (Q06187 whole entry, looked up): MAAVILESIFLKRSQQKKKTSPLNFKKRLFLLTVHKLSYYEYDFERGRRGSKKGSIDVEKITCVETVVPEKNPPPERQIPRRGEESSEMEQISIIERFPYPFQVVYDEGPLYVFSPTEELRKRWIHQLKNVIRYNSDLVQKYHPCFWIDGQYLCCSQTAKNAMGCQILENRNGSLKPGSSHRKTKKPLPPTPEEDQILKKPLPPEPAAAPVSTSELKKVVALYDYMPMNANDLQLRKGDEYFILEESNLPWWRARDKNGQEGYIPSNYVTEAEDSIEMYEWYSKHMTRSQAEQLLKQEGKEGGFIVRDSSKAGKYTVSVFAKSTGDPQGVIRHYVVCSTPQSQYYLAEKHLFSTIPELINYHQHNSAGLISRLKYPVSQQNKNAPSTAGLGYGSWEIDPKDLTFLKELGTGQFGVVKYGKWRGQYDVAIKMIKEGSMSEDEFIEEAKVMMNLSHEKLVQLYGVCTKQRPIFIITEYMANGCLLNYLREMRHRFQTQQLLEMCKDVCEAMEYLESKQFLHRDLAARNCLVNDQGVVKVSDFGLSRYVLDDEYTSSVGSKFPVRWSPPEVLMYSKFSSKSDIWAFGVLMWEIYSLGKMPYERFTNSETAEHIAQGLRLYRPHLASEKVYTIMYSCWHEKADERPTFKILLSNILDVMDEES
Sequence of TAOK1 (human) (Q7L7X3 whole entry, looked up): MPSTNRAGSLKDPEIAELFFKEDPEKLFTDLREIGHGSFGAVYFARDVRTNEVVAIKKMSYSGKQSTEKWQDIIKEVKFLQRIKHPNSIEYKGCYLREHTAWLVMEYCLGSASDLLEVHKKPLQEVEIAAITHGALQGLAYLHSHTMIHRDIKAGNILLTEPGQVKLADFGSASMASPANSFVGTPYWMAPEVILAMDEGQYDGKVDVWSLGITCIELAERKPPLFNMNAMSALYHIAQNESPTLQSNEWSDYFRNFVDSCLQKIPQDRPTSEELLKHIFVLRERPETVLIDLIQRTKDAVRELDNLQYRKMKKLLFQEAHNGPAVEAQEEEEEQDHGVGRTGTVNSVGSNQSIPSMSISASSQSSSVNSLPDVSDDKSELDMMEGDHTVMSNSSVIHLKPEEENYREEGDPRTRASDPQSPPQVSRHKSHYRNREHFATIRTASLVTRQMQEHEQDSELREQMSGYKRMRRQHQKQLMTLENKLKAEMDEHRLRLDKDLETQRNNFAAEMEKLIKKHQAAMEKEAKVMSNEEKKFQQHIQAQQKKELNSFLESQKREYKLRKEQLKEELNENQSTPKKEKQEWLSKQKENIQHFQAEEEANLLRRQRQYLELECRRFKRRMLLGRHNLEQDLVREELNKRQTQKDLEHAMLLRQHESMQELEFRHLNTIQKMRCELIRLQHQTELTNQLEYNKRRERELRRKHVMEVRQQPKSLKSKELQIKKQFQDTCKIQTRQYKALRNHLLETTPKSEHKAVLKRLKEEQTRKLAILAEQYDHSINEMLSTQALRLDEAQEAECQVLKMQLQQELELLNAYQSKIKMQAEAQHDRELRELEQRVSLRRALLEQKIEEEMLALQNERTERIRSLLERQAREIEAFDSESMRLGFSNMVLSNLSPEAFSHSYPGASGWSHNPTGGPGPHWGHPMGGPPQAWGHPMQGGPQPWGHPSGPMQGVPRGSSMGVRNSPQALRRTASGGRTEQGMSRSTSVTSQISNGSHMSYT
Sequence of BMPR1A (human) (P36894 whole entry, looked up): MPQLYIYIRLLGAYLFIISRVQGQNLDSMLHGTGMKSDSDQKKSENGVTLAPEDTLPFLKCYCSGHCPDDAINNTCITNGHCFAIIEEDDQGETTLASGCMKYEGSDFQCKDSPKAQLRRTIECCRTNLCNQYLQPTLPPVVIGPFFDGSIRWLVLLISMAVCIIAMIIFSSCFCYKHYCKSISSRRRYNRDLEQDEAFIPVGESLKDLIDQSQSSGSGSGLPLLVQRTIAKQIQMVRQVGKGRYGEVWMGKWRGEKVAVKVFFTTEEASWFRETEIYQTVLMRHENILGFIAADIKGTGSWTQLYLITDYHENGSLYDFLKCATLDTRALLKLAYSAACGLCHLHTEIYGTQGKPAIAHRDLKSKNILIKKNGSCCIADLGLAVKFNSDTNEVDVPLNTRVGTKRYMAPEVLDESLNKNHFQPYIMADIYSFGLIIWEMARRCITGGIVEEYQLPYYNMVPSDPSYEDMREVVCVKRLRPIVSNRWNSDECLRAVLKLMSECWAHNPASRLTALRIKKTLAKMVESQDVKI
Sequence of HUNK (human) (P57058 whole entry, looked up): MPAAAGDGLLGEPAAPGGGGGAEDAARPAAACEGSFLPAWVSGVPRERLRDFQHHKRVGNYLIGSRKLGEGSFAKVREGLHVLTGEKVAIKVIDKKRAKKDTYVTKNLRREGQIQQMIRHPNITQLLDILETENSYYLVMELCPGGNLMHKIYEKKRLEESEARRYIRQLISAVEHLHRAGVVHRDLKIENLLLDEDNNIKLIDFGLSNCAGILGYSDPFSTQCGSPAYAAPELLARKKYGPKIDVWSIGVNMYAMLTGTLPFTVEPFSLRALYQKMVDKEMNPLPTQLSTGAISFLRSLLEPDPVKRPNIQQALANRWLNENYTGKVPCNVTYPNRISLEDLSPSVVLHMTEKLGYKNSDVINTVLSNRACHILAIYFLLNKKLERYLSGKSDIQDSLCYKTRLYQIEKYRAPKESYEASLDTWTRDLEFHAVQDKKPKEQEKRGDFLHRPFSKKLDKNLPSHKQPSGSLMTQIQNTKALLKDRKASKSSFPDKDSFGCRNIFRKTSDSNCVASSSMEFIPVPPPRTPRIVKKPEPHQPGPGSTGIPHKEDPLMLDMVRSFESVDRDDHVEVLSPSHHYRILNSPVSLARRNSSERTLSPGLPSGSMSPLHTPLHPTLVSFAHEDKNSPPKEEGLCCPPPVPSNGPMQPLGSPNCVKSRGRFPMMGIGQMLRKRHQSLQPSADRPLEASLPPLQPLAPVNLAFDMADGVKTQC
Sequence of PHKG2 (human) (P15735 whole entry, looked up): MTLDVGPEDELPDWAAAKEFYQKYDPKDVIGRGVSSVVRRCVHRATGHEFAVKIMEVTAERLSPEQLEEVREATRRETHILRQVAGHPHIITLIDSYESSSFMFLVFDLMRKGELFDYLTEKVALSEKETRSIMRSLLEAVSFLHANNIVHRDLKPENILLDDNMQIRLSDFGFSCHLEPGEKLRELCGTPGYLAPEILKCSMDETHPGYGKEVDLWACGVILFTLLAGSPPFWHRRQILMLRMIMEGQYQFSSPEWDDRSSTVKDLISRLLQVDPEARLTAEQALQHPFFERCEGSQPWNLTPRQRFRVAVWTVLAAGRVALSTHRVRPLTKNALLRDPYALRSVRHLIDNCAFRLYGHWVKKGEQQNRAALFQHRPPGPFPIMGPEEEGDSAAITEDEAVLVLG
Sequence of ABL2 (human) (P42684 whole entry, looked up): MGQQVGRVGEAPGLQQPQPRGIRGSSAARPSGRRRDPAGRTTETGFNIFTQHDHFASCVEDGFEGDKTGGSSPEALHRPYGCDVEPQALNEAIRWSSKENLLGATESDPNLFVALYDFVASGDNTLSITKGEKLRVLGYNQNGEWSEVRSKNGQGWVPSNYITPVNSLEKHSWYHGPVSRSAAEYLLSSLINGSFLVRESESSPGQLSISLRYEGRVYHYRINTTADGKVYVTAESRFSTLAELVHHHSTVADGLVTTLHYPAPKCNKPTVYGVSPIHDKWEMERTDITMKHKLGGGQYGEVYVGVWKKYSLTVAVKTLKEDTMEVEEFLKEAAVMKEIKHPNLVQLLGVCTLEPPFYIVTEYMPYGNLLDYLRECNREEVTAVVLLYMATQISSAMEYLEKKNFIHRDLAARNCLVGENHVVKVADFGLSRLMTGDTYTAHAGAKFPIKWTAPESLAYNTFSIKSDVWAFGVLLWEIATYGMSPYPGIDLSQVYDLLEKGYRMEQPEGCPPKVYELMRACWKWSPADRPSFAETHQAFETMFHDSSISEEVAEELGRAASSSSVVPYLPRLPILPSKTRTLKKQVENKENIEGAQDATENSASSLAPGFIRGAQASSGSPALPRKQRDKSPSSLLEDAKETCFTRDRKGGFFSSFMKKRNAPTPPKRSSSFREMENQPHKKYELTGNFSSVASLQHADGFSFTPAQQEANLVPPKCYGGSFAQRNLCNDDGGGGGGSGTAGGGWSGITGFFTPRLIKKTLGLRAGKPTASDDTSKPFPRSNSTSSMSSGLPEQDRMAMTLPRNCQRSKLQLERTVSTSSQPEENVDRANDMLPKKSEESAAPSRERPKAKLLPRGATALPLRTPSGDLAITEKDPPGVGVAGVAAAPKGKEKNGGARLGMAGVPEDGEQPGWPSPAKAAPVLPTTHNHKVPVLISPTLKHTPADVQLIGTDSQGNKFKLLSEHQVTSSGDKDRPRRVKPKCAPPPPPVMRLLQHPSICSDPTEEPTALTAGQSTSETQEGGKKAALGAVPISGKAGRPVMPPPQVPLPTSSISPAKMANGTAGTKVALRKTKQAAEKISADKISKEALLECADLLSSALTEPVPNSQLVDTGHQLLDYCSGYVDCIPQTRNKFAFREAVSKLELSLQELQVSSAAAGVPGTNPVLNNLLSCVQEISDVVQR
Sequence of ACVR2B (human) (Q13705 whole entry, looked up): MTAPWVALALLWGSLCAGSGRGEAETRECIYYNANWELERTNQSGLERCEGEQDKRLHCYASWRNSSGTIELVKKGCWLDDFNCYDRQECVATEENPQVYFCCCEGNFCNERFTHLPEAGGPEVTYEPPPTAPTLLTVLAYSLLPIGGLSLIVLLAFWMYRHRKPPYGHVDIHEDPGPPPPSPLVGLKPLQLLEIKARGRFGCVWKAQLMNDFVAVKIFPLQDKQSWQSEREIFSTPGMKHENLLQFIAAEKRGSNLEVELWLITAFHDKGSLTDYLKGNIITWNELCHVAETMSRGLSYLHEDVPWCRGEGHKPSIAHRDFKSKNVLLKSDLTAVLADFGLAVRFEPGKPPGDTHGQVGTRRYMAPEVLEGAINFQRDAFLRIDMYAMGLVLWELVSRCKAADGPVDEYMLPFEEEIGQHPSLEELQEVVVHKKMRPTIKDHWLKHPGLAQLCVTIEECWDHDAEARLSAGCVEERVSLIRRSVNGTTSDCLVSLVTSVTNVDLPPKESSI

With `COc1cc2c(Nc3ccc(NC(=O)c4ccccc4)cc3)ncnc2cc1OCCCN1CCOCC1` the kinase still bound, per cent of control (BMPR1A (human)) was 37%, the kinase still bound, per cent of control (IKBKE (human)) was 62% and the kinase still bound, per cent of control (PRKG1 (human)) was 100%. For the same molecule, the kinase still bound, per cent of control (SLK (human)) was 0.95%, the kinase still bound, per cent of control (CLK4 (human)) was 100% and the kinase still bound, per cent of control (CDK8 (human)) was 100%. It also gave a kinase still bound, per cent of control (ACVR2B (human)) of 100%, a kinase still bound, per cent of control (ERBB2 (human)) of 0% and a kinase still bound, per cent of control (TNK1 (human)) of 69%. For the same molecule, the kinase still bound, per cent of control (BTK (human)) was 7.3%, the kinase still bound, per cent of control (FGFR2 (human)) was 89% and the kinase still bound, per cent of control [1] was 32%. For the same molecule, the kinase still bound, per cent of control (TESK1 (human)) was 59%, the kinase still bound, per cent of control [2] was 99% and the kinase still bound, per cent of control (MAP3K7 (human)) was 49%. The kinase still bound, per cent of control (ABL2 (human)) was 82%, the kinase still bound, per cent of control (FES (human)) was 100% and the kinase still bound, per cent of control (PHKG2 (human)) was 76%. For the same molecule, the kinase still bound, per cent of control (EPHB6 (human)) was 2%, the kinase still bound, per cent of control (DYRK2 (human)) was 91% and the kinase still bound, per cent of control [3] was 8.8%. It also gave a kinase still bound, per cent of control (HUNK (human)) of 81%, a kinase still bound, per cent of control (MAP2K5 (human)) of 0.3% and a kinase still bound, per cent of control (IRAK3 (human)) of 17%. The kinase still bound, per cent of control (ANKK1 (human)) was 17%, the kinase still bound, per cent of control (DCLK3 (human)) was 96% and the kinase still bound, per cent of control (TNIK (human)) was 51%. The kinase still bound, per cent of control (RIPK1 (human)) was 100%, the kinase still bound, per cent of control (MAP3K11 (human)) was 20% and the kinase still bound, per cent of control (CDK15 (human)) was 68%. It also gave a kinase still bound, per cent of control (MYLK4 (human)) of 100%, a kinase still bound, per cent of control (CaMK1 (human)) of 55% and a kinase still bound, per cent of control (SIK3 (human)) of 100%. For the same molecule, the kinase still bound, per cent of control (TSSK1B (human)) was 100%, the kinase still bound, per cent of control (STK33 (human)) was 67% and the kinase still bound, per cent of control (RPS6KA4 KD1 (human)) was 100%. For the same molecule, the kinase still bound, per cent of control (GSK3B (human)) was 70%, the kinase still bound, per cent of control (INSRR (human)) was 100% and the kinase still bound, per cent of control (TAOK1 (human)) was 95%. The kinase still bound, per cent of control (NTRK2 (human)) was 17%.

`O=c1[nH]c2ccccc2n1C1CCN(Cc2ccc(-c3nc4cc5[nH]cnc5cc4nc3-c3ccccc3)cc2)CC1` gave a kinase still bound, per cent of control (BMPR1A (human)) of 77%, a kinase still bound, per cent of control (IKBKE (human)) of 100% and a kinase still bound, per cent of control (PRKG1 (human)) of 88%. It also gave a kinase still bound, per cent of control (SLK (human)) of 59%, a kinase still bound, per cent of control (CLK4 (human)) of 95% and a kinase still bound, per cent of control (CDK8 (human)) of 100%. It also gave a kinase still bound, per cent of control (ACVR2B (human)) of 100%, a kinase still bound, per cent of control (ERBB2 (human)) of 86% and a kinase still bound, per cent of control (TNK1 (human)) of 91%. The kinase still bound, per cent of control (BTK (human)) was 100%, the kinase still bound, per cent of control (FGFR2 (human)) was 100% and the kinase still bound, per cent of control [1] was 79%. It also gave a kinase still bound, per cent of control (TESK1 (human)) of 74%, a kinase still bound, per cent of control [2] of 100% and a kinase still bound, per cent of control (MAP3K7 (human)) of 85%. The kinase still bound, per cent of control (ABL2 (human)) was 100%, the kinase still bound, per cent of control (FES (human)) was 100% and the kinase still bound, per cent of control (PHKG2 (human)) was 100%. It also gave a kinase still bound, per cent of control (EPHB6 (human)) of 69%, a kinase still bound, per cent of control (DYRK2 (human)) of 88% and a kinase still bound, per cent of control [3] of 53%. For the same molecule, the kinase still bound, per cent of control (HUNK (human)) was 72%, the kinase still bound, per cent of control (MAP2K5 (human)) was 72% and the kinase still bound, per cent of control (IRAK3 (human)) was 100%. For the same molecule, the kinase still bound, per cent of control (ANKK1 (human)) was 73%, the kinase still bound, per cent of control (DCLK3 (human)) was 91% and the kinase still bound, per cent of control (TNIK (human)) was 97%. For the same molecule, the kinase still bound, per cent of control (RIPK1 (human)) was 100%, the kinase still bound, per cent of control (MAP3K11 (human)) was 100% and the kinase still bound, per cent of control (CDK15 (human)) was 76%. It also gave a kinase still bound, per cent of control (MYLK4 (human)) of 64%, a kinase still bound, per cent of control (CaMK1 (human)) of 87% and a kinase still bound, per cent of control (SIK3 (human)) of 88%. The kinase still bound, per cent of control (TSSK1B (human)) was 82%, the kinase still bound, per cent of control (STK33 (human)) was 100% and the kinase still bound, per cent of control (RPS6KA4 KD1 (human)) was 100%. It also gave a kinase still bound, per cent of control (GSK3B (human)) of 89%, a kinase still bound, per cent of control (INSRR (human)) of 100% and a kinase still bound, per cent of control (TAOK1 (human)) of 91%. For the same molecule, the kinase still bound, per cent of control (NTRK2 (human)) was 85%.
